pEC50, pIC50: −log10 of the molar value.
How the values were obtained:
[1] = biological target: T1, Glucagon-like peptide 1 receptor (Homo sapiens, UniProt P43220); test: Displacement of [125I]-GLP1 from human GLP1 receptor expressed in BHK cells after 2 hrs in absence of human serum albumin; assay type: cell-based
[2] = biological target: T1, Glucagon-like peptide 1 receptor; test: Agonist activity at human GLP1 receptor expressed in BHK cells after 3 hrs by CRE firefly luciferase reporter gene assay in absence of human serum albumin; assay type: functional, cell-based
[3] = biological target: T1, Glucagon-like peptide 1 receptor; test: Displacement of [125I]-GLP1 from human GLP1 receptor expressed in BHK cells after 2 hrs in presence of 2% human serum albumin; assay type: cell-based

T1 sequence (P43220 whole entry): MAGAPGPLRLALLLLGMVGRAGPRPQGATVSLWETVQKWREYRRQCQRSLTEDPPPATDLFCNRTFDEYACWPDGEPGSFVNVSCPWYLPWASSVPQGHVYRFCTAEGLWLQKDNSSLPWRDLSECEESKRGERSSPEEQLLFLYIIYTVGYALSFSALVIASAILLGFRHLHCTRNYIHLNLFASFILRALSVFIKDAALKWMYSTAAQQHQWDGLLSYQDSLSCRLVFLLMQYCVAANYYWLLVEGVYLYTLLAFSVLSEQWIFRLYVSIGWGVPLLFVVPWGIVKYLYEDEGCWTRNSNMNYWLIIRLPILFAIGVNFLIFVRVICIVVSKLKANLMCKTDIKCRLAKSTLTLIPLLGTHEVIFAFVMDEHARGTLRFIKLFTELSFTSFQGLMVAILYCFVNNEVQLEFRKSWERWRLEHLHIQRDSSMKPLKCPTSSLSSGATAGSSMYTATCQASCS

How did the pIC50 [1] turn out when `CCCCCCCCCCCCCCCCCCCC(=O)N[C@@H](CCC(=O)NCCOCCOCC(=O)NCCOCCOCC(=O)NCCCC[C@H](NC(=O)[C@H](C)NC(=O)[C@H](C)NC(=O)[C@H](CCC(N)=O)NC(=O)CNC(=O)[C@H](CCC(=O)O)NC(=O)[C@H](CC(C)C)NC(=O)[C@H](Cc1ccc(O)cc1)NC(=O)[C@H](CO)NC(=O)[C@H](CO)NC(=O)[C@@H](NC(=O)[C@H](CC(=O)O)NC(=O)[C@H](CO)NC(=O)[C@@H](NC(=O)[C@H](Cc1ccccc1)NC(=O)[C@@H](NC(=O)CNC(=O)[C@H](CCC(=O)O)NC(=O)C(C)(C)NC(=O)[C@@H](N)Cc1c[nH]cn1)[C@@H](C)O)[C@@H](C)O)C(C)C)C(=O)N[C@@H](CCC(=O)O)C(=O)N[C@@H](Cc1ccccc1)C(=O)N[C@H](C(=O)N[C@@H](C)C(=O)N[C@@H](Cc1c[nH]c2ccccc12)C(=O)N[C@@H](CC(C)C)C(=O)N[C@H](C(=O)N[C@@H](CCCNC(=N)N)C(=O)NCC(=O)N[C@@H](CCCNC(=N)N)C(=O)NCC(=O)O)C(C)C)[C@@H](C)CC)C(=O)O` was run?
The pIC50 was 9.74.

What about the pEC50 [2] of the same compound?
Its pEC50 is 11.32.

And the pIC50 [3]?
Its pIC50 is 9.06.

With `CCCCCCCCCCCCCCCCCC(=O)N[C@@H](CCC(=O)NCCOCCOCC(=O)NCCOCCOCC(=O)NCCCC[C@H](NC(=O)[C@H](C)NC(=O)[C@H](C)NC(=O)[C@H](CCC(N)=O)NC(=O)CNC(=O)[C@H](CCC(=O)O)NC(=O)[C@H](CC(C)C)NC(=O)[C@H](Cc1ccc(O)cc1)NC(=O)[C@H](CO)NC(=O)[C@H](CO)NC(=O)[C@@H](NC(=O)[C@H](CC(=O)O)NC(=O)[C@H](CO)NC(=O)[C@@H](NC(=O)[C@H](Cc1ccccc1)NC(=O)[C@@H](NC(=O)CNC(=O)[C@H](CCC(=O)O)NC(=O)C(C)(C)NC(=O)[C@@H](N)Cc1c[nH]cn1)[C@@H](C)O)[C@@H](C)O)C(C)C)C(=O)N[C@@H](CCC(=O)O)C(=O)N[C@@H](Cc1ccccc1)C(=O)N[C@H](C(=O)N[C@@H](C)C(=O)N[C@@H](Cc1c[nH]c2ccccc12)C(=O)N[C@@H](CC(C)C)C(=O)N[C@H](C(=O)N[C@@H](CCCNC(=N)N)C(=O)NCC(=O)N[C@@H](CCCNC(=N)N)C(=O)NCC(=O)O)C(C)C)[C@@H](C)CC)C(=O)O` as the compound, how does the pIC50 [1] read?
The pIC50 was 10.40.

And the pEC50 [2]?
The pEC50 was 11.49.

What about the pIC50 [3] of the same compound?
Its pIC50 is 8.70.

`CC[C@H](C)[C@H](NC(=O)[C@H](Cc1ccccc1)NC(=O)[C@H](CCC(=O)O)NC(=O)[C@H](CCCCNC(=O)COCCOCCNC(=O)COCCOCCNC(=O)c1ccc(CN(CCC(=O)O)C(=O)CCCCCCCCCCCCCCCCC(=O)O)cc1)NC(=O)[C@H](C)NC(=O)[C@H](C)NC(=O)[C@H](CCC(N)=O)NC(=O)CNC(=O)[C@H](CCC(=O)O)NC(=O)[C@H](CC(C)C)NC(=O)[C@H](Cc1ccc(O)cc1)NC(=O)[C@H](CO)NC(=O)[C@H](CO)NC(=O)[C@@H](NC(=O)[C@H](CC(=O)O)NC(=O)[C@H](CO)NC(=O)[C@@H](NC(=O)[C@H](Cc1ccccc1)NC(=O)[C@@H](NC(=O)CNC(=O)[C@H](CCC(=O)O)NC(=O)C(C)(C)NC(=O)[C@@H](N)Cc1c[nH]cn1)[C@@H](C)O)[C@@H](C)O)C(C)C)C(=O)N[C@@H](C)C(=O)N[C@@H](Cc1c[nH]c2ccccc12)C(=O)N[C@@H](CC(C)C)C(=O)N[C@H](C(=O)N[C@@H](CCCNC(=N)N)C(=O)NCC(=O)N[C@@H](CCCNC(=N)N)C(=O)NCC(=O)O)C(C)C` was tested. Which pIC50 [1] did it give?
Its pIC50 is 8.04.

And the pIC50 [3]?
Its pIC50 is 7.29.

`CC[C@H](C)[C@H](NC(=O)[C@H](Cc1ccccc1)NC(=O)[C@H](CCC(=O)O)NC(=O)[C@H](CCCCNC(=O)COCCOCCNC(=O)COCCOCCNC(=O)CC[C@H](NC(=O)CCCCCCCCCCCCCCCCCCCCC(=O)O)C(=O)O)NC(=O)[C@H](C)NC(=O)[C@H](C)NC(=O)[C@H](CCC(N)=O)NC(=O)CNC(=O)[C@H](CCC(=O)O)NC(=O)[C@H](CC(C)C)NC(=O)[C@H](Cc1ccc(O)cc1)NC(=O)[C@H](CO)NC(=O)[C@H](CO)NC(=O)[C@@H](NC(=O)[C@H](CC(=O)O)NC(=O)[C@H](CO)NC(=O)[C@@H](NC(=O)[C@H](Cc1ccccc1)NC(=O)[C@@H](NC(=O)CNC(=O)[C@H](CCC(=O)O)NC(=O)C(C)(C)NC(=O)[C@@H](N)Cc1c[nH]cn1)[C@@H](C)O)[C@@H](C)O)C(C)C)C(=O)N[C@@H](C)C(=O)N[C@@H](Cc1c[nH]c2ccccc12)C(=O)N[C@@H](CC(C)C)C(=O)N[C@H](C(=O)N[C@@H](CCCNC(=N)N)C(=O)NCC(=O)N[C@@H](CCCNC(=N)N)C(=O)NCC(=O)O)C(C)C` was tested. Which pIC50 [1] did it give?
Its pIC50 is 9.68.

What about the pEC50 [2] of the same compound?
The pEC50 was 10.61.

And the pIC50 [3]?
The pIC50 was 7.61.

How did the pIC50 [1] turn out when `CC[C@H](C)[C@H](NC(=O)[C@H](Cc1ccccc1)NC(=O)[C@H](CCC(=O)O)NC(=O)[C@H](CCCCNC(=O)COCCOCCNC(=O)COCCOCCNC(=O)CC[C@H](NC(=O)CCCCCCCCCCCCCCC(=O)O)C(=O)O)NC(=O)[C@H](C)NC(=O)[C@H](C)NC(=O)[C@H](CCC(N)=O)NC(=O)CNC(=O)[C@H](CCC(=O)O)NC(=O)[C@H](CC(C)C)NC(=O)[C@H](Cc1ccc(O)cc1)NC(=O)[C@H](CO)NC(=O)[C@H](CO)NC(=O)[C@@H](NC(=O)[C@H](CC(=O)O)NC(=O)[C@H](CO)NC(=O)[C@@H](NC(=O)[C@H](Cc1ccccc1)NC(=O)[C@@H](NC(=O)CNC(=O)[C@H](CCC(=O)O)NC(=O)C(C)(C)NC(=O)[C@@H](N)Cc1c[nH]cn1)[C@@H](C)O)[C@@H](C)O)C(C)C)C(=O)N[C@@H](C)C(=O)N[C@@H](Cc1c[nH]c2ccccc12)C(=O)N[C@@H](CC(C)C)C(=O)N[C@H](C(=O)N[C@@H](CCCNC(=N)N)C(=O)NCC(=O)N[C@@H](CCCNC(=N)N)C(=O)NCC(=O)O)C(C)C` was run?
The pIC50 was 9.03.

And the pEC50 [2]?
Its pEC50 is 11.07.

What about the pIC50 [3] of the same compound?
The pIC50 was 7.69.

With `CCCCCCCCCCCCCCCC(=O)N[C@@H](CCC(=O)NCCOCCOCC(=O)NCCOCCOCC(=O)NCCCC[C@H](NC(=O)[C@H](C)NC(=O)[C@H](C)NC(=O)[C@H](CCC(N)=O)NC(=O)CNC(=O)[C@H](CCC(=O)O)NC(=O)[C@H](CC(C)C)NC(=O)[C@H](Cc1ccc(O)cc1)NC(=O)[C@H](CO)NC(=O)[C@H](CO)NC(=O)[C@@H](NC(=O)[C@H](CC(=O)O)NC(=O)[C@H](CO)NC(=O)[C@@H](NC(=O)[C@H](Cc1ccccc1)NC(=O)[C@@H](NC(=O)CNC(=O)[C@H](CCC(=O)O)NC(=O)C(C)(C)NC(=O)[C@@H](N)Cc1c[nH]cn1)[C@@H](C)O)[C@@H](C)O)C(C)C)C(=O)N[C@@H](CCC(=O)O)C(=O)N[C@@H](Cc1ccccc1)C(=O)N[C@H](C(=O)N[C@@H](C)C(=O)N[C@@H](Cc1c[nH]c2ccccc12)C(=O)N[C@@H](CC(C)C)C(=O)N[C@H](C(=O)N[C@@H](CCCNC(=N)N)C(=O)NCC(=O)N[C@@H](CCCNC(=N)N)C(=O)NCC(=O)O)C(C)C)[C@@H](C)CC)C(=O)O` as the compound, how does the pIC50 [3] read?
The pIC50 was 8.42.

`CC[C@H](C)[C@H](NC(=O)[C@H](Cc1ccccc1)NC(=O)[C@H](CCC(=O)O)NC(=O)[C@H](CCCCNC(=O)COCCOCCNC(=O)CC[C@H](NC(=O)CCCNC(=O)CCCCCCCCCCCCCCCCC(=O)O)C(=O)O)NC(=O)[C@H](C)NC(=O)[C@H](C)NC(=O)[C@H](CCC(N)=O)NC(=O)CNC(=O)[C@H](CCC(=O)O)NC(=O)[C@H](CC(C)C)NC(=O)[C@H](Cc1ccc(O)cc1)NC(=O)[C@H](CO)NC(=O)[C@H](CO)NC(=O)[C@@H](NC(=O)[C@H](CC(=O)O)NC(=O)[C@H](CO)NC(=O)[C@@H](NC(=O)[C@H](Cc1ccccc1)NC(=O)[C@@H](NC(=O)CNC(=O)[C@H](CCC(=O)O)NC(=O)C(C)(C)NC(=O)[C@@H](N)Cc1c[nH]cn1)[C@@H](C)O)[C@@H](C)O)C(C)C)C(=O)N[C@@H](C)C(=O)N[C@@H](Cc1c[nH]c2ccccc12)C(=O)N[C@@H](CC(C)C)C(=O)N[C@H](C(=O)N[C@@H](CCCNC(=N)N)C(=O)NCC(=O)N[C@@H](CCCNC(=N)N)C(=O)NCC(=O)O)C(C)C` was tested. Which pEC50 [2] did it give?
The pEC50 was 10.97.

And the pIC50 [3]?
The pIC50 was 7.68.

How did the pIC50 ([1]; bhk) turn out when `CCCCCCCCCCCCCCCC(=O)N[C@@H](CCC(=O)NCCOCCOCC(=O)NCCOCCOCC(=O)NCCOCCOCC(=O)NCCCC[C@H](NC(=O)[C@H](C)NC(=O)[C@H](C)NC(=O)[C@H](CCC(N)=O)NC(=O)CNC(=O)[C@H](CCC(=O)O)NC(=O)[C@H](CC(C)C)NC(=O)[C@H](Cc1ccc(O)cc1)NC(=O)[C@H](CO)NC(=O)[C@H](CO)NC(=O)[C@@H](NC(=O)[C@H](CC(=O)O)NC(=O)[C@H](CO)NC(=O)[C@@H](NC(=O)[C@H](Cc1ccccc1)NC(=O)[C@@H](NC(=O)CNC(=O)[C@H](CCC(=O)O)NC(=O)C(C)(C)NC(=O)[C@@H](N)Cc1c[nH]cn1)[C@@H](C)O)[C@@H](C)O)C(C)C)C(=O)N[C@@H](CCC(=O)O)C(=O)N[C@@H](Cc1ccccc1)C(=O)N[C@H](C(=O)N[C@@H](C)C(=O)N[C@@H](Cc1c[nH]c2ccccc12)C(=O)N[C@@H](CC(C)C)C(=O)N[C@H](C(=O)N[C@@H](CCCNC(=N)N)C(=O)NCC(=O)N[C@@H](CCCNC(=N)N)C(=O)NCC(=O)O)C(C)C)[C@@H](C)CC)C(=O)O` was run?
Its pIC50 is 10.52.

And the pEC50 ([2]; bhk)?
The pEC50 was 11.37.

And the pIC50 ([3]; bhk)?
The pIC50 was 9.66.

`CC[C@H](C)[C@H](NC(=O)[C@H](Cc1ccccc1)NC(=O)[C@H](CCC(=O)O)NC(=O)[C@H](CCCCN)NC(=O)[C@H](C)NC(=O)[C@H](C)NC(=O)[C@H](CCC(N)=O)NC(=O)CNC(=O)[C@H](CCC(=O)O)NC(=O)[C@H](CC(C)C)NC(=O)[C@H](Cc1ccc(O)cc1)NC(=O)[C@H](CO)NC(=O)[C@H](CO)NC(=O)[C@H](CCCCNC(=O)COCCOCCNC(=O)COCCOCCNC(=O)CC[C@H](NC(=O)CCCCCCCCCCCCCCCCC(=O)O)C(=O)O)NC(=O)[C@H](CC(=O)O)NC(=O)[C@H](CO)NC(=O)[C@@H](NC(=O)[C@H](Cc1ccccc1)NC(=O)[C@@H](NC(=O)CNC(=O)[C@H](CCC(=O)O)NC(=O)C(C)(C)NC(=O)[C@@H](N)Cc1c[nH]cn1)[C@@H](C)O)[C@@H](C)O)C(=O)N[C@@H](C)C(=O)N[C@@H](Cc1c[nH]c2ccccc12)C(=O)N[C@@H](CC(C)C)C(=O)N[C@H](C(=O)N[C@@H](CCCCN)C(=O)NCC(=O)N[C@@H](CCCNC(=N)N)C(=O)NCC(=O)O)C(C)C` was tested. Which pIC50 [1] did it give?
The pIC50 was 9.30.

And the pEC50 [2]?
Its pEC50 is 11.00.

And the pIC50 [3]?
Its pIC50 is 7.59.
